# Experimental data reported in patent US10987359B2, “Oxadiazepinone derivatives and methods of treating hepatitis B infections” (priority 2016, dated 2021).
# Tested on: HBV
# Experiment: HBV replication inhibition assay (BDNA assay) in HepG2.2.15 cells
# Format: cell-based
# Conditions: HBV replication assay (BDNA assay), HepG2.2.15 cells; read-out: DNA EC50
# Method in brief: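 HepG2.2.15 cells with stably integrated HBV were treated with serially diluted compounds at 0.5% DMSO for 6 days, with medium and compound refreshed at day 3. Encapsidated HBV DNA from DNase-treated supernatant was quantified by branched DNA assay. EC50 came from % inhibition versus DMSO, fitted non-linearly.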
row,Structure (SMILES),EC50 [nM]
1,"C[C@@H]1Cc2nn3c(c2CN1C(=O)Nc1cc(Cl)c(F)cc1F)C(=O)N(C)OC(COCC(F)F)C3 (stereo partly drawn) [Compound 127_D1, (45*,9R)—N-(5-chloro-2,4-difluorophenyl)-4-((2,2-difluoroethoxy)methyl)-2,9-dimethyl-1-oxo-1,4,5,8,9,11-hexahydropyrido[4′,3′:3,4]pyrazolo[5,1-d][1,2,5]oxadiazepine-10(2H)-carboxamide]",100 to 500

# Same assay, conditions: Hepatitis B virus, HepG2.2.15, HBV replication assay (BDNA assay), HepG2.2.15 cells; read-out: DNA EC50
row,Structure (SMILES),EC50 [nM]
1,"C[C@@H]1Cc2nn3c(c2CN1C(=O)Nc1ccc(F)c(Cl)c1)C(=O)N(C)OCC3 [Compound 075, (9R)—N-(3-chloro-4-fluoro-phenyl)-2,9-dimethyl-1-oxo-5,8,9,11-tetrahydro-4H-pyrido[2,3]pyrazolo[2,4-c][1,2,5]oxadiazepine-10-carboxamide]",1 to 100
2,"C[C@@H]1Cc2nn3c(c2CN1C(=O)Nc1ccc(F)c(C(F)(F)F)c1)C(=O)N(C)OCC3 [Compound 076, (R)—N-(4-fluoro-3-(trifluoromethyl)phenyl)-2,9-dimethyl-1-oxo-1,4,5,8,9,11-hexahydropyrido[4′,3′:3,4]pyrazolo[5,1-d][1,2,5]oxadiazepine-10(2H)-carboxamide]",1 to 100
3,"C[C@@H]1Cc2nn3c(c2CN1C(=O)Nc1ccc(F)c(Br)c1)C(=O)N(C)OCC3 [Compound 077, (R)—N-(3-bromo-4-fluorophenyl)-2,9-dimethyl-1-oxo-1,4,5,8,9,11-hexahydropyrido[4′,3′:3,4]pyrazolo[5,1-d][1,2,5]oxadiazepine-10(2H)-carboxamide]",1 to 100
4,"C[C@@H]1Cc2nn3c(c2CN1C(=O)Nc1ccnc(Br)c1F)C(=O)N(C)OCC3 [Compound 078, (R)—N-(2-bromo-3-fluoropyridin-4-yl)-2,9-dimethyl-1-oxo-1,4,5,8,9,11-hexahydropyrido[4′,3′:3,4]pyrazolo[5,1-d][1,2,5]oxadiazepine-10(2H)-carboxamide]",1 to 100
5,"C[C@@H]1Cc2nn3c(c2CN1C(=O)Nc1ccc(F)c(C#N)c1)C(=O)N(C)OCC3 [Compound 079, (R)—N-(3-cyano-4-fluorophenyl)-2,9-dimethyl-1-oxo-1,4,5,8,9,11-hexahydropyrido[4′,3′:3,4]pyrazolo[5,1-d][1,2,5]oxadiazepine-10(2H)-carboxamide]",1 to 100
6,"Cc1cc(NC(=O)N2Cc3c(nn4c3C(=O)N(C)OCC4)C[C@H]2C)ccc1F [Compound 080, (R)—N-(4-fluoro-3-methylphenyl)-2,9-dimethyl-1-oxo-1,4,5,8,9,11-hexahydropyrido[4′,3′:3,4]pyrazolo[5,1-d][1,2,5]oxadiazepine-10(2H)-carboxamide]",1 to 100
7,"C[C@@H]1Cc2nn3c(c2CN1C(=O)Nc1cc(F)c(F)c(Cl)c1)C(=O)N(C)OCC3 [Compound 081, (R)—N-(3-chloro-4,5-difluorophenyl)-2,9-dimethyl-1-oxo-1,4,5,8,9,11-hexahydropyrido[4′,3′:3,4]pyrazolo[5,1-d][1,2,5]oxadiazepine-10(2H)-carboxamide]",1 to 100
8,"CCOCC1Cn2nc3c(c2C(=O)N(C)O1)CN(C(=O)Nc1ccc(F)c(Cl)c1)CC3 (centres unmarked) [Compound 101, N-(3-chloro-4-fluoro-phenyl)-4-(ethoxymethyl)-2-methyl-1-oxo-5,8,9,11-tetrahydro-4H-pyrido[2,3]pyrazolo[2,4-d][1,2,5]oxadiazepine-10-carboxamide]",1 to 100
9,"C=CCOCC1Cn2nc3c(c2C(=O)N(C)O1)CN(C(=O)Nc1ccc(F)c(Cl)c1)CC3 (centres unmarked) [Compound 102, 4-(allyloxymethyl)-N-(3-chloro-4-fluoro-phenyl)-2-methyl-1-oxo-5,8,9,11-tetrahydro-4H-pyrido[2,3]pyrazolo[2,4-d][1,2,5]oxadiazepine-10-carboxamide]",1 to 100
10,"CCCOCC1Cn2nc3c(c2C(=O)N(C)O1)CN(C(=O)Nc1ccc(F)c(Cl)c1)CC3 (centres unmarked) [Compound 103, N-(3-chloro-4-fluoro-phenyl)-2-methyl-1-oxo-4-(propoxymethyl)-5,8,9,11-tetrahydro-4H-pyrido[2,3]pyrazolo[2,4-d][1,2,5]oxadiazepine-10-carboxamide]",1 to 100
11,"CN1OC(COCC2CC2)Cn2nc3c(c2C1=O)CN(C(=O)Nc1ccc(F)c(Cl)c1)CC3 (centres unmarked) [Compound 104, N-(3-chloro-4-fluoro-phenyl)-4-(cyclopropylmethoxymethyl)-2-methyl-1-oxo-5,8,9,11-tetrahydro-4H-pyrido[2,3]pyrazolo[2,4-d][1,2,5]oxadiazepine-10-carboxamide]",1 to 100
12,"CN1OC(COCC(F)F)Cn2nc3c(c2C1=O)CN(C(=O)Nc1ccc(F)c(Cl)c1)CC3 (centres unmarked) [Compound 105, N-(3-chloro-4-fluoro-phenyl)-4-(2,2-difluoroethoxymethyl)-2-methyl-1-oxo-5,8,9,11-tetrahydro-4H-pyrido[2,3]pyrazolo[2,4-d][1,2,5]oxadiazepine-10-carboxamide]",1 to 100
13,"CN1OC(COCC(F)(F)F)Cn2nc3c(c2C1=O)CN(C(=O)Nc1ccc(F)c(Cl)c1)CC3 (centres unmarked) [Compound 106, N-(3-chloro-4-fluoro-phenyl)-2-methyl-1-oxo-4-(2,2,2-trifluoroethoxymethyl)-5,8,9,11-tetrahydro-4H-pyrido[2,3]pyrazolo[2,4-d][1,2,5]oxadiazepine-10-carboxamide]",1 to 100
14,"[2H]C([2H])([2H])N1OC(CO)Cn2nc3c(c2C1=O)CN(C(=O)Nc1ccc(F)c(Cl)c1)CC3 (centres unmarked) [Compound 107, N-(3-chloro-4-fluoro-phenyl)-4-(hydroxymethyl)-1-oxo-2-(trideuteriomethyl)-5,8,9,11-tetrahydro-4H-pyrido[2,3]pyrazolo[2,4-d][1,2,5]oxadiazepine-10-carboxamide]",1 to 100
15,"CN1OC(CN)Cn2nc3c(c2C1=O)CN(C(=O)Nc1ccc(F)c(Cl)c1)CC3 (centres unmarked) [Compound 113, 4-(aminomethyl)-N-(3-chloro-4-fluoro-phenyl)-2-methyl-1-oxo-5,8,9,11-tetrahydro-4H-pyrido[2,3]pyrazolo[2,4-d][1,2,5]oxadiazepine-10-carboxamide]",1 to 100
16,"CNC(=O)C1Cn2nc3c(c2C(=O)N(C)O1)CN(C(=O)Nc1ccc(F)c(Cl)c1F)CC3 (centres unmarked) [Compound 118, N10-(3-chloro-2,4-difluorophenyl)-N4,2-dimethyl-1-oxo-1,4,5,8,9,11-hexahydropyrido[4′,3′:3,4]pyrazolo[5,1-d][1,2,5]oxadiazepine-4,10(2H)-dicarboxamide]",1 to 100
17,"CNC(=O)C1Cn2nc3c(c2C(=O)N(C)O1)CN(C(=O)Nc1cc(Cl)c(F)cc1F)CC3 (centres unmarked) [Compound 119, N10-(5-chloro-2,4-difluorophenyl)-N4,2-dimethyl-1-oxo-1,4,5,8,9,11-hexahydropyrido[4′,3′:3,4]pyrazolo[5,1-d][1,2,5]oxadiazepine-4,10(2H)-dicarboxamide]",100 to 500
18,"CNC(=O)C1Cn2nc3c(c2C(=O)N(C)O1)CN(C(=O)Nc1ccc(F)c(C#N)c1)CC3 (centres unmarked) [Compound 120, N10-(3-cyano-4-fluorophenyl)-N4,2-dimethyl-1-oxo-1,4,5,8,9,11-hexahydropyrido[4′,3′:3,4]pyrazolo[5,1-d][1,2,5]oxadiazepine-4,10(2H)-dicarboxamide]",100 to 500
19,"CN1OC(COC(F)(F)F)Cn2nc3c(c2C1=O)CN(C(=O)Nc1ccc(F)c(Cl)c1)CC3 (centres unmarked) [Compound 128, N-(3-chloro-4-fluorophenyl)-2-methyl-1-oxo-4-((trifluoromethoxy)methyl)-1,4,5,8,9,11-hexahydropyrido[4′,3′:3,4]pyrazolo[5,1-d][1,2,5]oxadiazepine-10(2H)-carboxamide]",1 to 100
20,"CN1OC(CNS(=O)(=O)CC(F)(F)F)Cn2nc3c(c2C1=O)CN(C(=O)Nc1ccc(F)c(Cl)c1)CC3 (centres unmarked) [Compound 130, N-(3-chloro-4-fluorophenyl)-2-methyl-1-oxo-4-(((2,2,2-trifluoroethyl)sulfonamido)methyl)-1,4,5,8,9,11-hexahydropyrido[4′,3′:3,4]pyrazolo[5,1-d][1,2,5]oxadiazepine-10(2H)-carboxamide]",1 to 100
21,"CN1OC(C(=O)N2CC(F)(F)C2)Cn2nc3c(c2C1=O)CN(C(=O)Nc1ccc(F)c(Cl)c1)CC3 (centres unmarked) [Compound 131, N-(3-chloro-4-fluorophenyl)-4-(3,3-difluoroazetidine-1-carbonyl)-2-methyl-1-oxo-1,4,5,8,9,11-hexahydropyrido[4′,3′:3,4]pyrazolo[5,1-d][1,2,5]oxadiazepine-10(2H)-carboxamide]",1 to 100
22,"CN1OC(C(=O)N2CCC(F)(F)C2)Cn2nc3c(c2C1=O)CN(C(=O)Nc1ccc(F)c(Cl)c1)CC3 (centres unmarked) [Compound 132, N-(3-chloro-4-fluorophenyl)-4-(3,3-difluoropyrrolidine-1-carbonyl)-2-methyl-1-oxo-1,4,5,8,9,11-hexahydropyrido[4′,3′:3,4]pyrazolo[5,1-d][1,2,5]oxadiazepine-10(2H)-carboxamide]",1 to 100
23,"CN(CC(F)(F)F)C(=O)C1Cn2nc3c(c2C(=O)N(C)O1)CN(C(=O)Nc1ccc(F)c(Cl)c1)CC3 (centres unmarked) [Compound 133, N10-(3-chloro-4-fluorophenyl)-N4,2-dimethyl-1-oxo-N4-(2,2,2-trifluoroethyl)-1,4,5,8,9,11-hexahydropyrido[4′,3′:3,4]pyrazolo[5,1-d][1,2,5]oxadiazepine-4,10(2H)-dicarboxamide]",1 to 100
24,"CN(CC(F)F)C(=O)C1Cn2nc3c(c2C(=O)N(C)O1)CN(C(=O)Nc1ccc(F)c(Cl)c1)CC3 (centres unmarked) [Compound 134, N10-(3-chloro-4-fluorophenyl)-N4-(2,2-difluoroethyl)-N4,2-dimethyl-1-oxo-1,4,5,8,9,11-hexahydropyrido[4′,3′:3,4]pyrazolo[5,1-d][1,2,5]oxadiazepine-4,10(2H)-dicarboxamide]",1 to 100
25,"CN1OC(C(=O)NCC(F)(F)F)Cn2nc3c(c2C1=O)CN(C(=O)Nc1ccc(F)c(Cl)c1)CC3 (centres unmarked) [Compound 135, N10-(3-chloro-4-fluorophenyl)-2-methyl-1-oxo-N4-(2,2,2-trifluoroethyl)-1,4,5,8,9,11-hexahydropyrido[4′,3′:3,4]pyrazolo[5,1-d][1,2,5]oxadiazepine-4,10(2H)-dicarboxamide]",1 to 100
